From patent US20200237766A1, “PKM2 ACTIVATORS IN COMBINATION WITH REACTIVE OXYGEN SPECIES FOR TREATMENT OF CANCER” (TOLERO PHARMACEUTICALS, INC., priority 2017, published 2020) come the findings set out here.

The assay addresses PKM2 (Homo sapiens, UniProt P14618). Nature of the assay: PKM2 activation biochemical assay (AC50 / max. response vs fructose 1,6-bisphosphate). To be noted: for Max. Resp. (%): % maximum response in a biochemical assay as compared with Fructose 1,6-bisphosphate.
The mark [1] stands for this setting: biochemical assay, read-out: PKM2 AC50.

SMILES strings stand for the structures. Like-named read-outs stand apart in the source and are kept apart here. Bounds are passed on as bounds.

Chain of PKM2 (P14618 whole entry): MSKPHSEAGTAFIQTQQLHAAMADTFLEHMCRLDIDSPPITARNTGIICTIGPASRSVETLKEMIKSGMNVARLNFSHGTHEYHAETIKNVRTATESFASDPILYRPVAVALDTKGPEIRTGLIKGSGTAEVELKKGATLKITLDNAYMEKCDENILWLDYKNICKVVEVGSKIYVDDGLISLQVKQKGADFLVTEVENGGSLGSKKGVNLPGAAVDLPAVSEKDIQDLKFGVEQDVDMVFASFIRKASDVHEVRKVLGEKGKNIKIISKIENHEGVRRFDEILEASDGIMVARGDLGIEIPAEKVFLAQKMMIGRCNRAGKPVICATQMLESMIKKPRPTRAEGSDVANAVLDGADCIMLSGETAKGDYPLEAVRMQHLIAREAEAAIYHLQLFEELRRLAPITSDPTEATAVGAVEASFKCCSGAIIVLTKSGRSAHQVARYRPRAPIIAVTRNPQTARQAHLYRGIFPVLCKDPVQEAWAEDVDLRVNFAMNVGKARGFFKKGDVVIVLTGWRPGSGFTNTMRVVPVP

As a reminder, the AC50 is the midpoint of the concentration-response curve, whichever way the signal moves. Take `Nc1ccc(CN(CC2CCC2)C(=O)c2cc(C(F)(F)F)n[nH]2)c(Cl)c1` [Compound 134]: the “Max. Resp. (%)” value is 100%. Moreover, the AC50 under setting [1] worked out at 1080 nM. Taken in the same sequence, the figures for `O=C(c1cc(C(F)(F)F)n[nH]1)N(CCN1CCCCC1)Cc1c(Cl)cccc1Cl` [Compound 180] were 100% and 154 nM. As for `O=C(CCSC(=S)NCc1cccnc1)c1ccc([N+](=O)[O-])cc1` [PMA13], the “Max. Resp. (%)” value is listed as 49%. For the same compound, under setting [1], the AC50 turned out to be 2760 nM.

Consider `Nc1cccc(Cl)c1CN(CCN1CCCC1)C(=O)c1cc(C(F)(F)F)n[nH]1` [Compound 222], for which the AC50 was 56 nM and the “Max. Resp. (%)” value was 100%. For the compound `O=C(c1cc(C(F)(F)F)n[nH]1)N(CCC1CCOC1)Cc1ccc(O)cc1F` (stereo not shown) [Compound 34], the “Max. Resp. (%)” value is given as 109%. Moreover, the AC50 under setting [1] is 77 nM. Consider `O=C(c1cc(C(F)(F)F)n[nH]1)N(CCC1CCS(=O)(=O)CC1)Cc1c(F)cccc1F` [Compound 85], for which the “Max. Resp. (%)” value came to 100%. In addition, under setting [1], the AC50 worked out at 64 nM.

As for `CCc1ccc(C)n2c(=O)cc(Cn3cnc4ccccc43)nc12` [PP11], the AC50 under setting [1] was 120 nM. `O=C(c1cc(C(F)(F)F)n[nH]1)N(Cc1ccccc1F)C1CCCCC1` [Compound 153]: the “Max. Resp. (%)” value came out at 57%. For the same compound, the AC50 under setting [1] is 19000 nM. Take `Nc1cccc(Cl)c1CN(CCN1CCS(=O)(=O)CC1)C(=O)c1cc(C(F)(F)F)n[nH]1` [Compound 224]: the “Max. Resp. (%)” value was found to be 100%. Moreover, the AC50 under setting [1] came out at 410 nM. Taken in the same sequence, the figures for `O=C(CCSC(=S)NCc1cccnc1)c1ccco1` [PMA25] were 107% and 4300 nM. As to `Nc1cc(C(=O)N(Cc2ccc(O)cc2F)CC2CCC2)[nH]n1` [Compound 3], the “Max. Resp. (%)” value is given as 45%. Also, under setting [1], the AC50 came to 43800 nM. Taken in the same sequence, the figures for `Cc1ccc2nc(Cn3cnc4ccccc43)cc(=O)n2c1` [PP3] were 149% and 755 nM. `O=C(c1cc(C(F)(F)F)n[nH]1)N(Cc1cccc2c1CCN2)CC1CCC1` [Compound 14]: the “Max. Resp. (%)” value is 81%. On to `O=C(c1cc(C(F)(F)F)n[nH]1)N(CCC1CCCCO1)Cc1ccccc1Cl` (stereo not shown) [Compound 44], for which the “Max. Resp. (%)” value was 32%. Under setting [1], the half-maximal activity concentration (AC50) was 50000 nM. Turning to `CN1CCN(CCN(Cc2ccccc2F)C(=O)c2cc(C(F)(F)F)n[nH]2)CC1` [Compound 103], the AC50 worked out at 37000 nM and the “Max. Resp. (%)” value was found to be 42%. With `CCOCCN(Cc1c(Cl)cccc1Cl)C(=O)c1cc(C(F)(F)F)n[nH]1` [Compound 42], the “Max. Resp. (%)” value worked out at 76%. Also, under setting [1], the AC50 is 8780 nM. On to `O=C(c1cc(C(F)(F)F)n[nH]1)N(Cc1ccccc1Cl)CC1COC1` [Compound 27], for which the AC50 came out at 33000 nM and the “Max. Resp. (%)” value turned out to be 47%.

Consider `O=C(c1cc(C(F)(F)F)n[nH]1)N(CCC1CCSCC1)Cc1ccccc1F` [Compound 79], for which the “Max. Resp. (%)” value is 95%. For the same compound, the AC50 under setting [1] turned out to be 1190 nM. For the compound `Cc1csc2nc(Cn3cnc4ccccc43)cc(=O)n12` [PP16], under setting [1], the AC50 was found to be 127 nM. As for `CCCCCN(Cc1ccccc1)C(=O)c1cc(C(F)(F)F)n[nH]1` [Compound 19], the “Max. Resp. (%)” value came out at 76%. For the same compound, the half-maximal activity concentration (AC50) under setting [1] was 920 nM. `COc1ccccc1C(=O)CCSC(=S)NCc1cccnc1` [PMA18]: the “Max. Resp. (%)” value is recorded as 88%. Moreover, the AC50 under setting [1] turned out to be 3930 nM. Take `O=C(c1cc(C(F)(F)F)n[nH]1)N(CCC1CCS(=O)(=O)C1)Cc1cncs1` (stereo not shown) [Compound 93]: the AC50 is 49000 nM and the “Max. Resp. (%)” value was 26%. Regarding `N#Cc1ccc(C(=O)CCSC(=S)NCc2cccnc2)cc1` [PMA12], the “Max. Resp. (%)” value was 61%. Also, the AC50 under setting [1] amounted to 4390 nM. As for `O=C(c1cc(Cl)n[nH]1)N(Cc1cccc2[nH]c(=O)sc12)CC1CCC1` [Compound 9], the “Max. Resp. (%)” value was determined as 80%. Under setting [1], the AC50 was 15400 nM. Take `O=C(c1cc(C(F)(F)F)n[nH]1)N(CCC1CCOCC1)Cc1ccccc1Cl` [Compound 32]: the “Max. Resp. (%)” value was determined as 107%. Also, the AC50 under setting [1] came to 1000 nM. For `O=C(CCSC(=S)NCc1cccnc1)c1nccs1` [PMA28], the “Max. Resp. (%)” value is given as 72%. Further, the AC50 under setting [1] is 3560 nM. With `O=C(c1cc(C(F)(F)F)n[nH]1)N(Cc1cccc(F)c1O)CC1CCC1` [Compound 136], the “Max. Resp. (%)” value is 100%. Also, under setting [1], the AC50 came out at 380 nM. Take `O=C(c1cc(C(F)(F)F)n[nH]1)N(CCN1CCS(=O)(=O)CC1)Cc1ccccc1F` [Compound 108]: the AC50 was determined as 7800 nM and the “Max. Resp. (%)” value worked out at 92%. In the case of `O=c1cc(Cn2cnc3ccccc32)nc2ccc(Cl)cn12` [PP10], under setting [1], the AC50 worked out at 219 nM. For `O=C(c1cc(Cl)n[nH]1)N(CCC1CCSCC1)Cc1ccccc1F` [Compound 80], the AC50 came to 1300 nM and the “Max. Resp. (%)” value came to 46%. `O=C(CCSC(=S)NCc1cccnc1)c1ccc[nH]1` [PMA27]: the “Max. Resp. (%)” value is reported as 126%. Moreover, the AC50 under setting [1] was above 20000 nM.

As for `O=C1CCC(CCN(Cc2ccccc2F)C(=O)c2cc(C(F)(F)F)n[nH]2)CC1` [Compound 60], the “Max. Resp. (%)” value was found to be 105%. Further, the AC50 under setting [1] came out at 101 nM. In the case of `O=C(CCSC(=S)NCc1cccnc1)c1ccc(OCc2ccccc2)cc1` [PMA15], the AC50 under setting [1] was above 20000 nM.

As to `Nc1cccc(Cl)c1CN(CCN1CCCOCC1)C(=O)c1cc(C(F)(F)F)n[nH]1` [Compound 239], the AC50 is 115 nM and the “Max. Resp. (%)” value is on record as 100%. Taken in the same sequence, the figures for `O=C(c1cc(C(F)(F)F)n[nH]1)N(Cc1ccccc1Cl)CC1CCC1` [Compound 127] were 258 nM and 100%. `O=C(c1cc(Cl)n[nH]1)N(Cc1cccc2[nH]cnc12)CC1CCC1` [Compound 119]: the “Max. Resp. (%)” value was found to be 100%. The AC50 under setting [1] was 2930 nM. In the case of `Nc1cccc(Cl)c1CN(CCN1CC[C@H](F)C1)C(=O)c1cc(C(F)(F)F)n[nH]1` [Compound 241], the AC50 was determined as 125 nM and the “Max. Resp. (%)” value was 100%. On to `CO[C@H]1CC[C@H](N(Cc2cccc(F)c2)C(=O)c2cc(C(F)(F)F)n[nH]2)CC1` [Compound 48], for which the “Max. Resp. (%)” value was 80%. For the same compound, the concentration at half-maximal activity (AC50) under setting [1] was 8580 nM. On to `CCN1CCC(CCN(Cc2ccccc2Cl)C(=O)c2cc(C(F)(F)F)n[nH]2)CC1` [Compound 101], for which the “Max. Resp. (%)” value turned out to be 96%. For the same compound, under setting [1], the AC50 was 1860 nM. Take `O=C(c1cc(C(F)(F)F)n[nH]1)N(Cc1ccncc1Cl)CC1CCC1` [Compound 128]: the “Max. Resp. (%)” value was determined as 75%. Further, the AC50 under setting [1] turned out to be 9300 nM. The matching figures for `O=C(c1cc(C(F)(F)F)n[nH]1)N(CCC1CCS(=O)(=O)C1)Cc1ccccc1F` (stereo not shown) [Compound 63]: 87% and 240 nM. For the compound `O=C(CCSC(=S)NCc1cccnc1)c1cccnc1` [PMA29], the “Max. Resp. (%)” value is on record as 106%. In addition, the AC50 under setting [1] turned out to be 3700 nM. The matching figures for `O=C(c1cc(C(F)(F)F)n[nH]1)N(CCN1CCOCC1)Cc1ccccc1Cl` [Compound 174]: 100% and 1490 nM. For the compound `O=C(c1cc(C(F)(F)F)n[nH]1)N(CCC1CCS(=O)(=O)C1)Cc1cccc([N+](=O)[O-])c1Cl` (stereo not shown) [Compound 94], the “Max. Resp. (%)” value stood at 69%. Besides, under setting [1], the concentration at half-maximal activity (AC50) was 2380 nM.

As for `O=C(c1cc(C(F)(F)F)n[nH]1)N(CCN1CCCC1)Cc1c(F)cccc1Cl` [Compound 177], the “Max. Resp. (%)” value was 100%. In addition, under setting [1], the AC50 was found to be 180 nM. Taken in the same sequence, the figures for `CS(=O)(=O)N1CCC(CCN(Cc2ccccc2F)C(=O)c2cc(C(F)(F)F)n[nH]2)CC1` [Compound 99] were 100% and 110 nM. The matching figures for `O=C(c1cc(C(F)(F)F)n[nH]1)N(Cc1ccccc1Cl)CC1CCCN1` (stereo not shown) [Compound 232]: 85% and 320 nM. As to `CCN1CCN(CCN(Cc2ccccc2F)C(=O)c2cc(C(F)(F)F)n[nH]2)CC1` [Compound 106], the “Max. Resp. (%)” value is recorded as 115%. Besides, the AC50 under setting [1] was found to be 6300 nM.

With `CCNCCN(Cc1ccccc1F)C(=O)c1cc(C(F)(F)F)n[nH]1` [Compound 155], the “Max. Resp. (%)” value is reported as 100%. Moreover, the AC50 under setting [1] is 2150 nM.

`CCN(CC)CCN(Cc1c(Cl)cccc1Cl)C(=O)c1cc(C(F)(F)F)n[nH]1` [Compound 169]: the “Max. Resp. (%)” value is reported as 100%. Also, the AC50 under setting [1] is 66 nM. Regarding `COCCCN(Cc1ccccc1Cl)C(=O)c1cc(C(F)(F)F)n[nH]1` [Compound 31], the “Max. Resp. (%)” value amounted to 82%. Also, the AC50 under setting [1] came out at 9590 nM. With `O=C(c1cc(C(F)(F)F)n[nH]1)N(CCN1CCCCCC1)Cc1ccccc1Cl` [Compound 189], the “Max. Resp. (%)” value came to 100%. Also, the AC50 under setting [1] turned out to be 24 nM.

Take `CC(CN(Cc1ccccc1Cl)C(=O)c1cc(C(F)(F)F)n[nH]1)N1CCCC1` (stereo not shown) [Compound 181]: the “Max. Resp. (%)” value is listed as 100%. Moreover, under setting [1], the AC50 was determined as 430 nM. On to `CC1CCCC(C)N1CCN(Cc1ccccc1Cl)C(=O)c1cc(C(F)(F)F)n[nH]1` (stereo not shown) [Compound 212], for which the “Max. Resp. (%)” value stood at 53%. The AC50 under setting [1] turned out to be 5810 nM. The matching figures for `O=C(c1cc(C(F)(F)F)n[nH]1)N(Cc1ccccc1Cl)CC1CCN1` (stereo not shown) [Compound 227]: 100% and 215 nM.

As for `O=C(c1cc(C(F)(F)F)n[nH]1)N(CCC1CCOC1)Cc1c(F)cccc1F` (stereo not shown) [Compound 40], the AC50 worked out at 1170 nM and the “Max. Resp. (%)” value came to 114%.

Take `O=C(c1cc(C(F)(F)F)n[nH]1)N(CCN1CCCC1)Cc1cccc2[nH]ccc12` [Compound 164]: the “Max. Resp. (%)” value stood at 100%. Moreover, the AC50 under setting [1] amounted to 113 nM. As for `Cn1cc(C(=O)c2cccc(Cl)c2Cl)cc1C(=O)NCCNC(=O)c1cc(C(=O)c2cccc(Cl)c2Cl)cn1C` [CA5], under setting [1], the AC50 is 14 nM.

For `Cn1cc(C(=O)c2cccc(Cl)c2Cl)cc1C(=O)NCNC(=O)c1cc(C(=O)c2cccc(Cl)c2Cl)cn1C` [CA4], the AC50 under setting [1] was 3.2 nM. For the compound `O=C(c1cc(C(F)(F)F)n[nH]1)N(CCC1CCS(=O)(=O)CC1)Cc1ccccc1Cl` [Compound 78], under setting [1], the AC50 was 485 nM.
